Measurements as given in patent US20100022401A1, “Avidin-like proteins from symbiotic bacteria” (LICENTIA OY, priority 2004, published 2010).
Like-named read-outs stand apart in the source and are kept apart here. Marks after values point to notes of the source that are not given here.

Tests used:
[1] = values from Bayer et al., 1996, cited from earlier work
[2] = Fluorescent biotin conjugate dissociation assay; assay type: binding
Experimental: FIG. 2 Biotin dissociation analysis. (A) The [3H]biotin dissociation rate constant was measured at different temperatures. The values for streptavidin are from Klumb et al. (Klumb et al., 1998). The scale of the Y axis is logarithmic. (B) Release of fluorescent biotin conjugate from avidins was studied as a function of time in the presence of excess D-biotin at 50° C.
Ligand binding properties were studied both by [3H]biotin assay and fluorescent biotin conjugate assay. The dissociation rate constant of [3H]biotin (Amersham) from the bradavidins and avidin was measured at various temperatures as described in detail previously (Klumb et al., 1998). According to the results, (Table I, FIG. 2) the faster dissociation rate measured from bradavidin indicates weaker affinity toward the radiobiotin than those of avidin and streptavidin. The dissociation rate of a fluorescent biotin conjugate (ArcDia BF560™-biotin) was measured as previously described (Hytönen et al., 2004a) at 50° C.
The apparent molecular mass is indicated and followed by the theoretical mass in brackets. Transition temperature (Tr) indicates the temperature in which half of the protein is tetrameric and half monomeric in the absence (first value) and presence (second value) of biotin. In addition to the measured dissociation rate constant (kdiss), the release percentage of the fluorescent biotin conjugate in one hour in the presence of excess free biotin is indicated. Calculated isoelectrical point (pI) and the number of cysteine residues per monomer are also indicated.

[3] = radio-biotin; streptavidin values from Klumb et al., 1998; cited from earlier work

## Streptavidin: bacterial analog for avidin from S. avidinii (SEQ ID NO:7) [reference compound]
[1]; absence of biotin
  Heat treatment SDS-PAGE Tr (transition temperature): 72^a ° C.
[1]; presence of biotin
  Heat treatment SDS-PAGE Tr (transition temperature): 100^a ° C.
[2]; ArcDia BF560-biotin, 50° C.
  Fluorescent biotin kdiss: 7.2e-06 s⁻¹
[2]; fluorescent biotin conjugate as ligand
  Fluorescent biotin conjugate dissociation (in words): very slow and small release
[2]; one hour, presence of excess free biotin, 50° C.
  Release 1 h of fluorescent biotin conjugate: 5.1%
[3]
  [3H]biotin dissociation rate (in words): fell between these two
